This is an account of results in PMC8764113 (Nature Communications, 2022).

The target of data set [1] is 2-(2-phenylethyl)chromone precursor synthase (PECPS), wild type, recombinant (Aquilaria sinensis). Nature of the data set: SEC; purified recombinant PECPS; approximately 86 kDa against a calculated 43 kDa for the monomer (Supplementary Fig. 4b); column and buffer of this run not told.
The test system of data set [2] is wild type N. benthamiana leaves. The data set can be described thus: Infiltration of C6-C5-C6 substrates into wild type N. benthamiana leaves, LC-MS. The data set is classed as in vivo, Nicotiana benthamiana.
In a further data set the test system is PECPS. Nature of the data set: Standard PECPS enzyme reaction, acceptance of starter-CoA. The data set is classed as biochemical, Aquilaria sinensis. The following applies: condensation with 4-hydroxyphenylpropionyl-β-diketide acid. As to the method:
The standard reaction mixture contained 26 nmol of starter-CoA (4-hydroxyphenylpropionyl-CoA/benzoyl-CoA/phenylpropionyl-CoA/2-hydroxybenzoyl-CoA/3-hydroxybenzoyl-CoA/4-hydroxybenzoyl-CoA), 29 nmol of malonyl-CoA/benzoyl-β-diketide acid/4-hydroxyphenylpropionyl-β-diketide acid (note: before β-diketide acids were added to the reaction buffer, they were first dissolved in dimethyl sulfoxide to a final concentration of 2.9 mM), and 0.4 nmol of the purified recombinant enzyme, in 100 mM KPB (pH 7.5) for a final volume of 500 μL. Incubations were performed at 37 °C for 12 h and terminated by the addition of 20 μL of 20% HCl. The reaction solution was then extracted three times with 800 μL of ethyl acetate. The organic layers were combined, evaporated to dryness with nitrogen, and dissolved in 50 μL of MeOH for LCMS-IT-TOF (Shimadzu, Japan) analysis. The HPLC was equipped with an Agilent Eclipse XDB C18 column (250 × 4.6 mm I.D., 5 μm) and eluted at a flow rate of 1.0 mL/min. For the standard assay, gradient elution was performed with H2O and acetonitrile: 0–10 min, 30% acetonitrile; 10–20 min, 30–60% acetonitrile; 20–25 min, 60–70% acetonitrile; 25–30 min, 70–80% acetonitrile; 30–35 min, 80–100% acetonitrile; 35–40 min, 100% acetonitrile.

Data set [3] has as its system PECPS expression in A. sinensis calli. The following applies: NaCl-treated calli. The procedure:
Considering that PECs contain a phenylethyl moiety, 4-hydroxyphenylpropionyl-CoA, rather than p-coumaroyl-CoA, was deliberately selected as the starter substrate for the reaction with malonyl-CoA, a canonical chain extender for PKSs, and the recombinant PECPS. […] The construction of a C6–C5–C6 scaffold by coincubation of benzoyl-CoA, malonyl-CoA, and 4-hydroxyphenylpropionyl-CoA was attempted.

For data set [4], the system named is PECPS protein expression in A. sinensis calli. As to conditions: 150 mM NaCl-treated calli. The procedure:
GAPDH was used as internal reference. d Western blot quantification of the relative expression levels of PECPS by ImageJ and normalization to the protein levels of GAPDH. Data represent the mean ± SD (n = 3). Statistical analysis was performed with unpaired two-tailed Student’s t-tests. Significance is shown with asterisks: ****p < 0.0001, ***p < 0.001, **p < 0.01. Exact p-values and source data are provided in the source data file. Total protein was extracted from 100 mg of calli using Plant Total Protein Extraction Reagent (Invent, USA) according to the manufacturer’s instructions. The protein expression levels of PECPS were analyzed by Western blotting with an anti-PECPS antibody prepared in rabbits.

A further data set deals with wild type PECPS (Aquilaria sinensis, UniProt A0A385MEG6). Nature of the data set: ITC binding to wild type PECPS. The following applies: ITC, 100 mM KPB pH 7.5, 37 °C, mean ± SD (n = 3). The procedure:
ITC measurements of affinity (KD), stoichiometry (n) and apparent enthalpy change (ΔH°) were obtained using a Nano LV ITC calorimeter (TA Instruments). Samples for cell and injectant solutions were prepared in the same buffer (100 mM KPB, pH 7.5). All experiments were conducted at 37 °C with a stirring speed of 240 rpm and a sequence of 20 injections of 2.5 μL and 380 s delays between succeeding injections. The sample cell was filled with 47–85 μM protein solution (300 μl), while 1.09 mM 4-hydroxyphenylpropionyl-CoA (or 1.15 mM benzoyl-CoA) solution was placed in the syringe. The resulting data were processed with the standard NanoAnalyze software package (version 3.11.0), assuming the model of one type of binding site with an apparent stoichiometry close to 1:1. The first injection resulting in a heat change was disregarded in the later analysis. Titration experiments were performed in triplicate to show reproducibility. Control experiments confirmed that the heats of dilution caused by the reactant being titrated into buffer and the buffer into protein solution were negligible. The heats of dilution for the sample in the cell were subtracted from the final trace before integration with respect to time. The thermodynamic data obtained from the traces were averaged across three runs, and a standard deviation was calculated. Representative ITC thermograms and isotherm plots for experiments can be found in Supplementary Fig. 35.

The test system of data set [5] is NaCl-stressed A. sinensis cells. The data set can be described thus: Substrate feeding to NaCl-stressed A. sinensis suspension cells, LC-MS. The following applies: NaCl-stressed A. sinensis cells fed with substrate. The format is cell-based, Aquilaria sinensis. The procedure: To verify the aforementioned hypothesis that diarylpentanoid is the common precursor of PECs, substrate-feeding experiments were performed. First, a putative innate-substrate, 5-(4-hydroxyphenyl)-1-phenylpentane-1,3-dione (2), was fed to NaCl-stressed A. sinensis cells, and its metabolites were carefully analyzed by LC–MS. […] Next, the fluorine-containing nonphysiological substrate 5-(4-F-phenyl)-1-phenylpentane-1,3-dione (F-2) was fed to NaCl-stressed A. sinensis cells. As a result, 10 fluorinated PECs (C01–C10) were successfully obtained by LC–MS guided separation and purification (Fig. 2b and Supplementary Fig. 8), and the structures of C01–C06 were unequivocally determined by extensive spectroscopic techniques, including ^1H-NMR, ^13C-NMR and HRESI-MS (Supplementary Figs. 9–14 and Supplementary Tables 2 and 3). Unfortunately, attempts to elucidate the structures of compounds C07–C10 by NMR techniques were complicated by their small yields. […]
Robustly growing suspension cells (200 mL × 10) were treated with NaCl (final concentration 150 mM) and immediately fed the fluorine-labeled substrate F-2 (20 mg × 10). […] Fluorinated PECs could be detected from the crude residue by LC–MS (Supplementary Fig. 8). […]

Data set [6] is described as follows: Non-enzymatic conversion of oxidoagarochromone C in aqueous methanol, HPLC. The data set is classed as physicochemical. The following applies: methanol aqueous solution, room temperature. The procedure: Figure 19. […]
HPLC chromatograms were recorded on an Agilent ZORBAXSB C18 column (250 mm × 4.6 mm, I.D., 5 μm) eluted with H2O and acetonitrile in an isocratic mode (0–30 min, 30% acetonitrile; flow rate 1.0 mL/min). Oxidoagarochromone C (S) was dissolved in 50% aqueous methanol and kept at room temperature. ATC-type PECs (1–5) converted from the substrate (S) via the non-enzymatic opening of the epoxy rings were readily apparent at 12 h and 36 h. Given that the structures of compounds 1-5 were tentatively identified by HRESI MS, the presence of methyl groups in compounds 2 and 5 is also possible on other hydroxyl groups formed by the opening of the epoxy rings, and the structures of 3 and 4 may be […]

Like-named read-outs stand apart in the source and are kept apart here.

wild type PECPS, sequence (A0A385MEG6 entry or part of it): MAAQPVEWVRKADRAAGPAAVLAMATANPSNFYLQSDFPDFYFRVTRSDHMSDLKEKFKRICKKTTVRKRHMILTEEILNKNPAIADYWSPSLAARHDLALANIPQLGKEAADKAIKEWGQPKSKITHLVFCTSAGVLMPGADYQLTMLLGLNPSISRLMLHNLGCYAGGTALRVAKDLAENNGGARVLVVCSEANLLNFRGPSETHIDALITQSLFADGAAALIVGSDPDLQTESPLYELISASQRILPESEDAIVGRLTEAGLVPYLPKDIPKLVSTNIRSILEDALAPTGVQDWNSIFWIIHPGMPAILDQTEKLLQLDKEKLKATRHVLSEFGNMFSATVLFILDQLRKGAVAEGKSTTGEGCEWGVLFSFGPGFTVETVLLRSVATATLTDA

“2-(2-phenylethyl)chromone precursor synthase (PECPS), wild type, recombinant (enzyme)”: the stoichiometry N in data set [1] is 2.

On to `O=C(CCc1ccccc1)CC(=O)c1ccccc1` [1,5-diphenylpentane-1,3-dione], for which the “biotransformation in wild type N. benthamiana leaves” value in data set [2] is given as “converted to PECs”.

With `CC(C)(COP(=O)(O)OP(=O)(O)OC[C@H]1O[C@@H](n2cnc3c(N)ncnc32)[C@H](O)[C@@H]1OP(=O)(O)O)[C@@H](O)C(=O)NCCC(=O)NCCSC(=O)c1ccccc1O` [2-hydroxybenzoyl-CoA], the “acceptance as starter by PECPS to produce the C6–C5–C6 scaffold” value in the data set on PECPS was “not accepted”.

Consider `CC(C)(COP(=O)(O)OP(=O)(O)OC[C@H]1O[C@@H](n2cnc3c(N)ncnc32)[C@H](O)[C@@H]1OP(=O)(O)O)[C@@H](O)C(=O)NCCC(=O)NCCSC(=O)c1cccc(O)c1` [3-hydroxybenzoyl-CoA], for which the “acceptance as starter by PECPS to produce the C6–C5–C6 scaffold” value in the data set on PECPS is “could accept”.

Consider `CC(C)(COP(=O)(O)OP(=O)(O)OC[C@H]1O[C@@H](n2cnc3c(N)ncnc32)[C@H](O)[C@@H]1OP(=O)(O)O)[C@@H](O)C(=O)NCCC(=O)NCCSC(=O)c1ccc(O)cc1` [4-hydroxybenzoyl-CoA], for which the “acceptance as starter by PECPS to produce the C6–C5–C6 scaffold” value with PECPS was “could accept”.

With `[Cl-].[Na+]` [NaCl], the “Relative expression level of PECPS (qRT-PCR), Mean” value in data set [3] (0 h) came to 0.3162; in data set [3] (24 h) it was 0.7432; in data set [3] (48 h) it was 2.33; in data set [3] (72 h), 6.264; in data set [3] (96 h) it was 1.556. Also, the “Relative expression level of PECPS protein (PECPS/GAPDH), Mean” value in data set [4] (0 h) was determined as 0.2667; in data set [4] (24 h) it was 0.4551; in data set [4] (48 h), 1.257; in data set [4] (72 h), 1.846; in data set [4] (96 h) it was 1.18.

`CC(C)(COP(=O)(O)OP(=O)(O)OC[C@H]1O[C@@H](n2cnc3c(N)ncnc32)[C@H](O)[C@@H]1OP(=O)(O)O)[C@@H](O)C(=O)NCCC(=O)NCCSC(=O)c1ccccc1` [benzoyl-CoA] displayed a Kd on wild type PECPS of about 1 mM.

In the case of `O=C(CCc1ccc(O)cc1)CC(=O)c1ccccc1` [compound 2, 5-(4-hydroxyphenyl)-1-phenylpentane-1,3-dione], the “accumulation of PECs (P1–P5) in substrate-fed cells” value in data set [5] is “visibly increased”. Moreover, in data set [2], the “biotransformation in wild type N. benthamiana leaves” value is on record as “converted to PECs”.

For the compound oxidoagarochromone C, the “products from the opening of the epoxy ring (non-enzymatic conversion to ATC-type PECs)” value in data set [6] was “readily detected”.
